What all share (format): cell-based
The target of experiment [1] is T1, Broad substrate specificity ATP-binding cassette transporter ABCG2 (Homo sapiens, UniProt Q9UNQ0).
T1 sequence (Q9UNQ0 whole entry): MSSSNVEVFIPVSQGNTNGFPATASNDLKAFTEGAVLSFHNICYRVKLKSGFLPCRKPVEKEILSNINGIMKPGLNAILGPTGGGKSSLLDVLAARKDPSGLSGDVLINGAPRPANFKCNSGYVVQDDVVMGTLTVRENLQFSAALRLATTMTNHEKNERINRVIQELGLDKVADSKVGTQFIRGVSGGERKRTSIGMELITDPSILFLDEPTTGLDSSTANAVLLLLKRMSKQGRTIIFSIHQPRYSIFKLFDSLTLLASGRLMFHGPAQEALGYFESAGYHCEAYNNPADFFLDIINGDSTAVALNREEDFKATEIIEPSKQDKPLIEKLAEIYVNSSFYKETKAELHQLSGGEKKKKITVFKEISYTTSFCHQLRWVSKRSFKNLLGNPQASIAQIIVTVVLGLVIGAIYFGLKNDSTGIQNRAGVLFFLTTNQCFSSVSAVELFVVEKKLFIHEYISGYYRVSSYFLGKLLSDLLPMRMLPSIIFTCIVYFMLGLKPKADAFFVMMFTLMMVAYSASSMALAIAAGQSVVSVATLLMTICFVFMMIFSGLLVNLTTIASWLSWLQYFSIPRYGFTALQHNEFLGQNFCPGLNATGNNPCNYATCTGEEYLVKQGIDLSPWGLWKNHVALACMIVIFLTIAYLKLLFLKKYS
Kind of experiment: Inhibition of ABCG2 (unknown origin) expressed in dog MDCK-II-BCRP cells assessed as increase in Hoechst 33342 fluorescence intensity using Hoechst 33342 as tracer preincubated for 30 mins followed by Hoechst 33342 addition and measured after 120 mins by fluorescence based analysis.

The target in experiment [2] is T2, Solute carrier organic anion transporter family member 1B1 (Homo sapiens, UniProt Q9Y6L6).
T2 sequence (Q9Y6L6 whole entry): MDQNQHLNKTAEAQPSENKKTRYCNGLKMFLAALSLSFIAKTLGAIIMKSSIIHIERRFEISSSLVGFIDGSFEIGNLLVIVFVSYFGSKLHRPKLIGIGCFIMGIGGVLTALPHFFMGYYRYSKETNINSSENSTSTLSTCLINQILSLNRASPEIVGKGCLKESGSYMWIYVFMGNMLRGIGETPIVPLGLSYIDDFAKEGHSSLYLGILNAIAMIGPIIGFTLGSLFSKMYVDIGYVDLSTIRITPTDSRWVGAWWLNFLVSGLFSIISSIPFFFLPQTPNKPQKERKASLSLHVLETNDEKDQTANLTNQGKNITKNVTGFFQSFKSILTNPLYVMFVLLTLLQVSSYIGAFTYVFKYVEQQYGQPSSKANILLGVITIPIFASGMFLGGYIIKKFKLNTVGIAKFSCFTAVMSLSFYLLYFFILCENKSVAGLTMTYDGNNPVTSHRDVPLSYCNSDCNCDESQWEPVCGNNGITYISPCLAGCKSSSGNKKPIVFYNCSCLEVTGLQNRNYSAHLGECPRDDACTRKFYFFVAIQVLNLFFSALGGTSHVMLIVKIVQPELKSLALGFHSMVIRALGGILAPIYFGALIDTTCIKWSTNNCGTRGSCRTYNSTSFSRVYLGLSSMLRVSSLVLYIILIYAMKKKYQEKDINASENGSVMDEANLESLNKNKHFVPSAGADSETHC
Nature of the experiment: Inhibition of OATP1B1 (unknown origin) transfected in human A-431 cells assessed as inhibition of DHPDS uptake preincubated for 5 mins followed by DHPDS addition and measured after 10 mins by fluorescence based analysis.

For experiment [3], the target named is T3, Solute carrier organic anion transporter family member 1A2 (Homo sapiens, UniProt P46721).
T3 sequence (P46721 whole entry): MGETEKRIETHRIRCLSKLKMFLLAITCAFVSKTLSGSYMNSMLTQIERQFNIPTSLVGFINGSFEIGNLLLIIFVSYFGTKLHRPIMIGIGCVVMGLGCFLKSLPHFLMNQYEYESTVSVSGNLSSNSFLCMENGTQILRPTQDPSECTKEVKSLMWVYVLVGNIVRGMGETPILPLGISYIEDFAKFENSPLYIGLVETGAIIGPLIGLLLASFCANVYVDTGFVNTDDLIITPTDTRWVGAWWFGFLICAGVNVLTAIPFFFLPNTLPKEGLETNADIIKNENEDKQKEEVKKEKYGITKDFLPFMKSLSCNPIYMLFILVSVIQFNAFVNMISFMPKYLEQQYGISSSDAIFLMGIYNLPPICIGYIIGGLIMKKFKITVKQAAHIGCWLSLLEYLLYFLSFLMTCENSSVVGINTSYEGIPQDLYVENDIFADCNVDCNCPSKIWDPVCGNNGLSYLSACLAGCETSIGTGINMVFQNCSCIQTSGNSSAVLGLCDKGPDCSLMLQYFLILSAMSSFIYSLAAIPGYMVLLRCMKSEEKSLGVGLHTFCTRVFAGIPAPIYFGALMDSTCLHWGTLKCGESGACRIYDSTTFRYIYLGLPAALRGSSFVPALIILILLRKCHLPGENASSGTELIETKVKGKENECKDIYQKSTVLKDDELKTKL
Kind of experiment: Inhibition of OATP1A2 (unknown origin) transfected in human A-431 cells assessed as inhibition of SR101 uptake preincubated for 5 mins followed by SR101 addition and measured after 10 mins by fluorescence based analysis.

The target in experiment [4] is T4, Solute carrier organic anion transporter family member 2B1 (Homo sapiens, UniProt O94956).
T4 sequence (O94956 whole entry): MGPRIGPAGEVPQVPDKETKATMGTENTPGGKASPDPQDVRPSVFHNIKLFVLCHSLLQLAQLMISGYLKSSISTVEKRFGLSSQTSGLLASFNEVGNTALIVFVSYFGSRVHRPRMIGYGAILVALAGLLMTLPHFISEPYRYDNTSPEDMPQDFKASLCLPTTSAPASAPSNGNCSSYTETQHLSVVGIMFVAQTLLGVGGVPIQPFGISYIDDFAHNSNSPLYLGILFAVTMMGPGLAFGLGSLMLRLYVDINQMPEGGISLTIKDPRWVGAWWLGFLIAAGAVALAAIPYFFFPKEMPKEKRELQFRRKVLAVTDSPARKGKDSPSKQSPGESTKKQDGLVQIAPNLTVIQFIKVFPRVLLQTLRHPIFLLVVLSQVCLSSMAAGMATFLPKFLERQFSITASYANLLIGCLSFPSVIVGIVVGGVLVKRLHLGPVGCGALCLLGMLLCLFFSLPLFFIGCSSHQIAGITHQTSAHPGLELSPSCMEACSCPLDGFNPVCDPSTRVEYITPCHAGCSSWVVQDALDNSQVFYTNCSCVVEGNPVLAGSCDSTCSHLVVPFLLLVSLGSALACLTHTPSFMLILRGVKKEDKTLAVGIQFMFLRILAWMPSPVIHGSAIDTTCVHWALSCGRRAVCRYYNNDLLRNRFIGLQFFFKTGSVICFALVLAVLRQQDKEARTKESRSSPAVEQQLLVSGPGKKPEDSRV
Nature of the experiment: Inhibition of OATP2B1 (unknown origin) transfected in human A-431 cells assessed as inhibition of pyranine uptake preincubated for 5 mins followed by pyranine addition and measured after 15 mins by fluorescence based analysis.

Consider `O=C(Cn1nc(C(=O)Nc2ccccn2)c2ccccc21)Nc1cc(Cl)ccc1Cl`, for which the IC50 in experiment [1] worked out at 1030 nM; in experiment [2], 16800 nM; in experiment [3], 1320 nM; in experiment [4], 167 nM.
Taken in the same sequence, the figures for `COc1cccc(NC(=O)Cn2nc(C(=O)Nc3cccc(OC)c3)c3ccccc32)c1` were 2070 nM, 4960 nM, 420 nM and 583 nM.
`O=C(Cn1nc(C(=O)Nc2cccnc2)c2ccccc21)Nc1ccc(Cl)cc1`: the IC50 in experiment [1] stood at 6560 nM; in experiment [2] it was 17900 nM; in experiment [3], 422 nM; in experiment [4], 155 nM.
For `COc1cccc(NC(=O)c2nn(CC(=O)Nc3ccccc3OC)c3ccccc23)c1` the same measures were 6290 nM, 5660 nM, 237 nM and 124 nM.

The IC50 is the midpoint of a concentration-inhibition curve.
